± gives the expanded uncertainty stated by the source.
Conditions: 323.14 K, Liquid, Vibrating tube method

CCCCCCC(=O)OCC(COC(=O)CCCCCC)(COC(=O)CCCCCC)COC(=O)CCCCCC [pentaerythritol tetraheptanoate]
Conditions	mass density [kg/m3]
141.6 kPa	955.8 ± 1.2
142.1 kPa	955.7 ± 1.2
142.7 kPa	955.7 ± 1.2
143.5 kPa	955.7 ± 1.2
146.5 kPa	955.7 ± 1.2
148.2 kPa	955.7 ± 1.2
149.1 kPa	955.7 ± 1.2
149.8 kPa	955.7 ± 1.2
150.7 kPa	955.7 ± 1.2
151.7 kPa	955.7 ± 1.2
160.6 kPa	955.8 ± 1.2
191.9 kPa	955.7 ± 1.2
198.5 kPa	955.7 ± 1.2
199.7 kPa	955.7 ± 1.2
201.6 kPa	955.8 ± 1.2
203.3 kPa	955.6 ± 1.2
206.3 kPa	955.6 ± 1.2
208.7 kPa	955.6 ± 1.2
211.5 kPa	955.7 ± 1.2
213.8 kPa	955.8 ± 1.2
216.2 kPa	955.6 ± 1.2
219 kPa	955.8 ± 1.2
222.1 kPa	955.7 ± 1.2
224.9 kPa	955.7 ± 1.2
228.5 kPa	955.7 ± 1.2
231.8 kPa	955.6 ± 1.2
234.6 kPa	955.7 ± 1.2
237.8 kPa	955.7 ± 1.2
248.7 kPa	955.8 ± 1.2
252.3 kPa	955.7 ± 1.2
256.9 kPa	955.6 ± 1.2
260.9 kPa	955.8 ± 1.2
269.9 kPa	955.8 ± 1.2
274.2 kPa	955.7 ± 1.2
279.5 kPa	955.8 ± 1.2
284.3 kPa	955.8 ± 1.2
289.2 kPa	955.7 ± 1.2
294.6 kPa	955.8 ± 1.2
300.8 kPa	955.7 ± 1.2
306.2 kPa	955.9 ± 1.2
313.2 kPa	955.9 ± 1.2
325.7 kPa	955.8 ± 1.2
332.1 kPa	955.9 ± 1.2
355.4 kPa	955.9 ± 1.2
382.3 kPa	955.9 ± 1.2
391.6 kPa	956 ± 1.2
402.9 kPa	955.9 ± 1.2
412.9 kPa	955.8 ± 1.2
423.9 kPa	955.8 ± 1.2
437.3 kPa	955.8 ± 1.2
478.1 kPa	956 ± 1.2
585.3 kPa	955.9 ± 1.2
606 kPa	955.9 ± 1.2
632.9 kPa	956 ± 1.2
657.4 kPa	955.9 ± 1.2
683.2 kPa	956 ± 1.2
747.4 kPa	956.1 ± 1.2
859.8 kPa	956 ± 1.2
901.9 kPa	956.1 ± 1.2
946 kPa	956.2 ± 1.2
1003.2 kPa	956.3 ± 1.2
1051.3 kPa	956.3 ± 1.2
1084.8 kPa	956.4 ± 1.2
1163.8 kPa	956.3 ± 1.2
1174 kPa	956.4 ± 1.2
1215.6 kPa	956.4 ± 1.2
1248.5 kPa	956.5 ± 1.2
1269 kPa	956.4 ± 1.2
1336.1 kPa	956.5 ± 1.2
1342 kPa	956.5 ± 1.2
1347.9 kPa	956.5 ± 1.2
1355 kPa	956.5 ± 1.2
1360.7 kPa	956.6 ± 1.2
1366.8 kPa	956.5 ± 1.2
1374.4 kPa	956.5 ± 1.2
1380.5 kPa	956.5 ± 1.2
1386.8 kPa	956.6 ± 1.2
1393.9 kPa	956.6 ± 1.2
1400.3 kPa	956.5 ± 1.2
1406.6 kPa	956.7 ± 1.2
1414.7 kPa	956.6 ± 1.2
1515.9 kPa	956.7 ± 1.2
1530.9 kPa	956.7 ± 1.2
1537.8 kPa	956.7 ± 1.2
1547 kPa	956.7 ± 1.2
1554.5 kPa	956.7 ± 1.2
1561.9 kPa	956.7 ± 1.2
1571 kPa	956.8 ± 1.2
1578.6 kPa	956.7 ± 1.2
1586.4 kPa	956.6 ± 1.2
1596.1 kPa	956.6 ± 1.2
1604 kPa	956.7 ± 1.2
1612.1 kPa	956.7 ± 1.2
1637.6 kPa	956.7 ± 1.2
1645.8 kPa	956.8 ± 1.2
1655.5 kPa	956.8 ± 1.2
1664.2 kPa	956.7 ± 1.2
1672.2 kPa	956.7 ± 1.2
1680.7 kPa	956.8 ± 1.2
1690.9 kPa	956.8 ± 1.2
1699.8 kPa	956.8 ± 1.2
1708.3 kPa	956.8 ± 1.2
1756.9 kPa	956.8 ± 1.2
1766.2 kPa	956.7 ± 1.2
1784.8 kPa	956.7 ± 1.2
1795.8 kPa	956.8 ± 1.2
1805 kPa	956.9 ± 1.2
1816.8 kPa	956.8 ± 1.2
1826.5 kPa	956.8 ± 1.2
1836.5 kPa	956.8 ± 1.2
1847 kPa	956.8 ± 1.2
1857.2 kPa	957 ± 1.2
